Assay results: the NIST ThermoML archive (doi:10.1021/acs.jced.5b00181)

Assay: xn = mol fraction of the nth substance listed
Details: 101 kPa, Liquid; for viscosity: Falling or rolling sphere viscometry; for speed of sound: Frequency=3 MHz, Sing-around technique in a fixed-path interferometer; for mass density: Vibrating tube method

CCCCCC[n+]1ccn(C)c1.O=S(=O)([N-]S(=O)(=O)C(F)(F)F)C(F)(F)F + CCCO
Details	mass density [kg/m3]	speed of sound [m/s]	viscosity [mPa·s]
278.15 K, x1 = 0.048	920.02	1255.6	4.973
278.15 K, x1 = 0.0991	1003.18	1246.2	7.263
278.15 K, x1 = 0.1928	1109.95	1243.7	13.14
278.15 K, x1 = 0.2895	1184.1	1246.9	20.71
278.15 K, x1 = 0.3911	1239.44	1252	30.93
278.15 K, x1 = 0.4877	1278.76	1256.3	44.03
278.15 K, x1 = 0.6028	1314.62	1261.3	63.47
278.15 K, x1 = 0.6999	1338.53	1265.1	87.45
278.15 K, x1 = 0.8016	1359.18	1268.5	117.11
278.15 K, x1 = 0.8999	1375.88	1271.5	155.87
298.15 K, x1 = 0.048	903.08	1191.5	2.872
298.15 K, x1 = 0.0991	985.65	1186	3.917
298.15 K, x1 = 0.1928	1091.69	1187.7	6.538
298.15 K, x1 = 0.2895	1165.51	1193.5	9.707
298.15 K, x1 = 0.3911	1220.7	1200.4	13.78
298.15 K, x1 = 0.4877	1259.96	1205.8	18.59
298.15 K, x1 = 0.6028	1295.83	1211.8	25.71
298.15 K, x1 = 0.6999	1319.79	1216.2	33.17
298.15 K, x1 = 0.8016	1340.46	1220.1	42.83
298.15 K, x1 = 0.8999	1357.18	1223.3	54.58
318.15 K, x1 = 0.048	885.86	1129.7	1.799
318.15 K, x1 = 0.0991	967.85	1128.2	2.374
318.15 K, x1 = 0.1928	1073.33	1134	3.734
318.15 K, x1 = 0.2895	1146.9	1142.4	5.367
318.15 K, x1 = 0.3911	1202.04	1151	7.383
318.15 K, x1 = 0.4877	1241.33	1157.7	9.855
318.15 K, x1 = 0.6028	1277.27	1164.8	13.26
318.15 K, x1 = 0.6999	1301.3	1169.8	16.47
318.15 K, x1 = 0.8016	1322.04	1174.3	20.58
318.15 K, x1 = 0.8999	1338.82	1178.1	25.19
338.15 K, x1 = 0.048	868.04	1069.2	1.203
338.15 K, x1 = 0.0991	949.6	1071.6	1.565
338.15 K, x1 = 0.1928	1054.71	1081.8	2.399
338.15 K, x1 = 0.2895	1128.21	1092.8	3.401
338.15 K, x1 = 0.3911	1183.4	1103.3	4.568
338.15 K, x1 = 0.4877	1222.81	1111.4	5.928
338.15 K, x1 = 0.6028	1258.9	1119.7	7.803
338.15 K, x1 = 0.6999	1283.03	1125.6	9.596
338.15 K, x1 = 0.8016	1303.87	1130.8	11.71
338.15 K, x1 = 0.8999	1320.72	1135.3	13.92
